One block for each molecule: values may come before it. Numbered stars: 1 amine (or outer) side, 2 acyl side, 3 side chain; on linkers, the order of the positions; unused ones are H or OH. Bridge positions count the residues as written; N and C are the ends. Square brackets hold non-standard residues; d marks the D form. Peptide text beside a SMILES is read from it. * marks the point of attachment. Ala(piperidin-4-yl) = O=C([C@H](CC1CCN([*:3])CC1)N[*:1])[*:2]; DOTA = O=C(O)CN1CCN(CC(=O)O)CCN(CC(=O)*)CCN(CC(=O)O)CC1; Phe(4-CH2NH2) = NCc1ccc(C[C@H](N)C(=O)O)cc1; 1Nal = N[C@@H](Cc1cccc2ccccc12)C(=O)O; 2Nal = N[C@@H](Cc1ccc2ccccc2c1)C(=O)O; Phe(2-Me) = Cc1ccccc1C[C@H](N)C(=O)O; tBuAla = CC(C)(C)C[C@H](N)C(=O)O; αMeD = C[C@](N)(CC(=O)O)C(=O)O; AllylGly = C=CC[C@H](N)C(=O)O; PAF(DOTA) = not defined here; αMeP = C[C@@]1(C(=O)O)CCCN1; NMeS = CN[C@@H](CO)C(=O)O; Ahx = NCCCCCC(=O)O
Tests used:
SHP-77 cells [1] = test: Internalization of [177Lu]Lu-labeled peptide after glycine acid wash, gamma counter internalized fraction; assay type: cell-based, human; conditions: [177Lu]Lu-test peptide, 1 h, 37° C., acid wash 50 mM Glycine pH 2.5
Method: (§1) Example 4. Cell Binding, Internalization, and Radiolabeling of Targeting Moieties Polypeptides General Procedure for Radiolabeling of RPTs with [^177Lu]LuCl3
(§2) [^177Lu]LuCl3 was received from venders in HCl solution. For every mCi of [^177Lu]LUCl3 added to the reaction vial (1.5 mL Eppendorf vial), ammonium acetate buffer (0.2 M, pH 4.9, 100 μL, containing 1% w/v ascorbic acid and 6% v/v ethanol) and peptide conjugate (1 nmol) was added. The pH of the solution was determined to be approximately 5 by using pH strips. The reaction vial was incubated at 80° C., 700 RPM for 17-20 minutes. A sample from the reaction was analyzed by RP-HPLC using an Agilent Infinity II 1260 HPLC to determine reaction completion and radiochemical purity. HPLC conditions: Waters XBridge BEH […] Column, 130 Å, 3.5 um, 4.6 mm×250 mm; mobile phase: Solvent A=water (with 0.1% formic acid), solvent B=acetonitrile (with 0.1% formic acid). Gradients: 25-45% B in 10 minutes, 45-65% B in 12 minutes, 65-90% in 6 minutes at a flow rate of 0.5 mL/min. Required amounts of the product was formulated in 1% PBSA for cell studies.
(§3) The study was conducted using SHP-77cells (Table 7) Adherent cell studies: The cells were cultured in appropriate culture media (20 mL) in tissue culture treated T150 flasks at 37° C. and 5% CO2. Adherent cells were detached (60-70% confluent) using 5 mL Versene at 37° C. for 3 min. After confirming the viability using countess and count of detached cells using Trypan blue, the cells were centrifuged at 4° C. for 5 minutes (1,000 rpm). The cell pellet obtained was washed once with PBS and resuspended in 1% PBSA to obtain the desired cell concentration (5-25 million cells/mL).
as §3, with “Suspension” for “The study was conducted using SHP-77cells (Table 7) Adherent”, “CO2.” for “CO2. Adherent cells were detached (60-70% confluent) using 5 mL Versene at 37° C. for 3 min.”, “viability” for “viability using countess”
(§4) Cell numbers used for the assay were in the range of 5 million cells/condition −25 million cells/condition.
Internalization: The resuspended cells in 300 μl of 1% PBSA and counted in the gamma counter as “bound fraction” were collected in 1.5 ml Eppendorf tube and pelleted. The pelleted cells were incubated with 300 μl of 50 mM Glycine pH=2.5 for 3 minutes and then pelleted discarding the supernatant. This process was repeated one more time. The pelleted cells were washed with 300 μl of cold 1% PBSA and then resuspended in 300 μl 0.3M NaOH. This was counted in the gamma counter as “internalized fraction”.
(§5) SHP-77 cells are human-derived, non-engineered SCLC cells.

human DLL3 = biological target: T1, human DLL3 (Homo sapiens, UniProt Q9NYJ7); test: Affinity determination by Surface Plasmon Resonance (SPR), Biacore, 1:1 binding model; conditions: biotinylated human DLL3 on streptavidin chip, 25° C.; NB = nonbinding
T1 construct: biotin (biotinylated)
T1 sequence (Q9NYJ7 27-618): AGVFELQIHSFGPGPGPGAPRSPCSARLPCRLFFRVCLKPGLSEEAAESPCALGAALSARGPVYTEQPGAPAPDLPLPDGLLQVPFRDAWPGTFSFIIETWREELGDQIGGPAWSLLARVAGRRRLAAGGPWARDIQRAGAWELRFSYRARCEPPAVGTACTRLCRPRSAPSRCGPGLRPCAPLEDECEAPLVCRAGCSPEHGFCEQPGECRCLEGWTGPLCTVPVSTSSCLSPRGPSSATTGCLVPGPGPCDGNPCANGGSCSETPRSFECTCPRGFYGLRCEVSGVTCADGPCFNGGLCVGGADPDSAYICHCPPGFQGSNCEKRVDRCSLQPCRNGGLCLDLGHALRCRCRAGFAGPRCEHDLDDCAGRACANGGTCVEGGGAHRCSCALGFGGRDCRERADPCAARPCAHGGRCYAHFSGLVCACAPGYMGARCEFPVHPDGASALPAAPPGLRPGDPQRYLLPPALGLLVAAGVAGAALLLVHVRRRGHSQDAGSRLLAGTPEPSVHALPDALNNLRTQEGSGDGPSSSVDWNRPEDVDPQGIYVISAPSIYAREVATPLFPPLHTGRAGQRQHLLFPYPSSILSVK
Method in brief: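 SPR with biotinylated human DLL3 captured on a streptavidin chip, with a reference surface subtracted. Samples were injected at several concentrations at 100 μL/min in phosphate buffer with 137 mM NaCl, 2.7 mM KCl, 0.05% P20 and 2% DMSO. Kinetic and affinity constants came from a 1:1 binding fit.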

SHP-77 cells [2] = test: Cell binding (total uptake) of [177Lu]Lu-labeled peptide, gamma counter bound fraction; assay type: cell-based, human; conditions: [177Lu]Lu-test peptide, 1 h, 37° C., 1% PBSA
Method: as §1, §2, §3
as §3, with “Suspension” for “The study was conducted using SHP-77cells (Table 7) Adherent”, “CO2.” for “CO2. Adherent cells were detached (60-70% confluent) using 5 mL Versene at 37° C. for 3 min.”, “viability” for “viability using countess”
as §4
Total uptake: Cells were incubated with 300 μL (0.8 μCi) of the incubation buffer (containing radiolabeled peptide [^177Lu]Lu-test peptide) for 1 hour at 37 C (Table 8). Post incubation, the cells were pelleted and washed 2 times using cold PBS+1% BSA. The supernatant and washes were combined and counted together as “unbound fraction” in a gamma counter. The cells were then resuspended in 300 μL of 1% PBS+1% BSA and counted in the gamma counter as “bound fraction”.
as §5

[3] = biological target: DLL3 on SHP-77 cells (human) (UniProt Q9NYJ7); test: 177Lu-labelled peptide on SHP-77 cells, 1 h 37 C, gamma count of bound fraction

Molecule: CC(C)(C)C[C@@H]1NC(=O)[C@H](Cc2cccc3ccccc23)NC(=O)[C@@H](NC(=O)[C@H](CC(=O)O)NC(=O)[C@H](CO)NC(=O)CCCCCNC(=O)CN2CCN(CC(=O)O)CCN(CC(=O)O)CCN(CC(=O)O)CC2)CSSC[C@@H](C(=O)N2CCC[C@@]2(C)C(=O)N[C@@H](Cc2ccccc2)C(=O)N[C@@H](CC(=O)O)C(N)=O)NC(=O)[C@H](CC(N)=O)NC(=O)[C@H](Cc2ccc3ccccc3c2)NC(=O)[C@H](CC2CCNCC2)NC1=O [compound 176, DOTA-Ahx-S-D-C(3)-(1Nal)-(t-Bu-Ala)-[3-(4-piperidinyl)-Ala]-(2Nal)-N-C(3)-(aMe-P)-F -D-CONH2] ({DOTA-Ahx}-SDC[1Nal][tBuAla][Ala(piperidin-4-yl)][2Nal]NC[αMeP]FD-NH2; disulfide 3-9)
% Internalization (out of bound fraction) (SHP-77 cells [1]): 53%
Kd (human DLL3): 0.047 nM
% Binding (SHP-77 cells [2]): 6%

Molecule: Ac-[dA]SDC[1Nal][tBuAla]A[2Nal]DC[αMeP]FD[dK](DOTA)-NH2 (disulfide 4-10; also: 177Lu chelated) [[177Lu]Lu-Cpd #166]
% Binding [3]: 7%

B1: [177Lu]Lu-Cpd #158 (peptide)
peptide: Ac-[dA]SDC[1Nal][tBuAla][PAF(DOTA)][2Nal]NC[αMeP]FD-NH2
modifications: disulfide 4-10; reading uncertain; also: 177Lu chelated, printed as Ac-(D-Ala)-S-D-C(3)-(1Nal)-(t-Bu-Ala)-[PAF(DOTA)]-(2Nal)-N-C(3)-(aMe-P)-F-D-CONH2; (3)=disulfide; 177Lu chelated
% Binding [3]: 25%

Molecule: {DOTA}-[dA]SDC[1Nal][tBuAla]Q[2Nal]NC[αMeP][Phe(2-Me)]D-NH2 (disulfide 4-10; also: 177Lu chelated) [[177Lu]Lu-Cpd #154]
% Binding [3]: 10%

Molecule: {DOTA}-[Ahx]SDC[1Nal][tBuAla][Ala(piperidin-4-yl)][2Nal]NC[αMeP]FD-NH2 (disulfide 4-10; also: 177Lu chelated) [[177Lu]Lu-Cpd #176]
% Binding [3]: 6%

Molecule: Ac-[dA]S[αMeD]C[1Nal][tBuAla]Q[2Nal]NC[αMeP]FD[dK](DOTA)-NH2 (disulfide 4-10; also: 177Lu chelated) [[177Lu]Lu-Cpd #168]
% Binding [3]: 8%

More lines, main results first:

Kd (human DLL3): 0.21 nM
Molecule: CC(=O)N[C@@H](CC1CCNCC1)C(=O)N(C)[C@@H](CO)C(=O)N[C@@H](CC(=O)O)C(=O)N[C@H]1CSSC[C@@H](C(=O)N2CCC[C@@]2(C)C(=O)N[C@@H](Cc2ccccc2)C(=O)N[C@@H](CC(=O)O)C(N)=O)NC(=O)[C@H](CC(N)=O)NC(=O)[C@H](Cc2ccc3ccccc3c2)NC(=O)[C@H](Cc2ccc(CNC(=O)CN3CCN(CC(=O)O)CCN(CC(=O)O)CCN(CC(=O)O)CC3)cc2)NC(=O)[C@H](CC(C)(C)C)NC(=O)[C@H](Cc2cccc3ccccc23)NC1=O [compound 191, Ac-[3-(4-piperidinyl)-Ala]-(NMe-Ser)-D-C(3)-(1Nal)-(t-Bu-Ala)-[PAF(DOTA)]-(2Nal)-N-C(3)-(aMe-P)-F-D-CONH2] (Ac-[Ala(piperidin-4-yl)][NMeS]DC[1Nal][tBuAla][Phe(4-CH2NH2)](DOTA)[2Nal]NC[αMeP]FD-NH2; disulfide 4-10)
% Internalization (out of bound fraction) (SHP-77 cells [1]): 48%
% Binding (SHP-77 cells [2]): 10%

Kd (human DLL3): 0.27 nM
Molecule: CC(=O)N[C@@H](CC1CCNCC1)C(=O)N(C)[C@@H](CO)C(=O)N[C@@H](CC(N)=O)C(=O)N[C@H]1CSSC[C@@H](C(=O)N2CCC[C@@]2(C)C(=O)N[C@@H](Cc2ccccc2)C(=O)N[C@@H](CC(=O)O)C(N)=O)NC(=O)[C@H](CC(N)=O)NC(=O)[C@H](Cc2ccc3ccccc3c2)NC(=O)[C@H](Cc2ccc(CNC(=O)CN3CCN(CC(=O)O)CCN(CC(=O)O)CCN(CC(=O)O)CC3)cc2)NC(=O)[C@H](CC(C)(C)C)NC(=O)[C@H](Cc2cccc3ccccc23)NC1=O [compound 192, Ac-[3-(4-piperidinyl)-Ala]-(NMe-Ser)-N-C(3)-(1Nal)-(t-Bu-Ala)-[PAF(DOTA)]-(2Nal)-D-C(3)-(aMe-P)-F-D-CONH2] (Ac-[Ala(piperidin-4-yl)][NMeS]NC[1Nal][tBuAla][Phe(4-CH2NH2)](DOTA)[2Nal]NC[αMeP]FD-NH2; disulfide 4-10)
% Internalization (out of bound fraction) (SHP-77 cells [1]): 45%
% Binding (SHP-77 cells [2]): 9%

Kd (human DLL3): 0.63 nM
Molecule: CC(=O)N[C@H](C)C(=O)N(C)[C@@H](CO)C(=O)N[C@@H](CC(=O)O)C(=O)N[C@H]1C/C=C/C[C@@H](C(=O)N2CCC[C@@]2(C)C(=O)N[C@@H](Cc2ccccc2)C(=O)N[C@@H](CC(=O)O)C(N)=O)NC(=O)[C@H](CC(N)=O)NC(=O)[C@H](Cc2ccc3ccccc3c2)NC(=O)[C@H](Cc2ccc(CNC(=O)CN3CCN(CC(=O)O)CCN(CC(=O)O)CCN(CC(=O)O)CC3)cc2)NC(=O)[C@H](CC(C)(C)C)NC(=O)[C@H](Cc2cccc3ccccc23)NC1=O [compound 195, Ac-(D-Ala)-(NMe-Ser)-D-AllyG(4)-(1Nal)-(t-Bu-Ala)-[PAF(DOTA)]-(2Nal)-N-AllyG(4)-(aMe-P)-F-D-CONH2] (Ac-[dA][NMeS]D[AllylGly][1Nal][tBuAla][Phe(4-CH2NH2)](DOTA)[2Nal]N[AllylGly][αMeP]FD-NH2; staple (E) 4-10)
% Internalization (out of bound fraction) (SHP-77 cells [1]): 43%
% Binding (SHP-77 cells [2]): 7%

Kd (human DLL3): 0.18 nM
Molecule: CC(=O)N[C@@H](CC1CCNCC1)C(=O)N[C@@H](CO)C(=O)N[C@@H](CC(=O)O)C(=O)N[C@H]1CC=CC[C@@H](C(=O)N2CCC[C@@]2(C)C(=O)N[C@@H](Cc2ccccc2)C(=O)N[C@@H](CC(=O)O)C(N)=O)NC(=O)[C@H](CC(N)=O)NC(=O)[C@H](Cc2ccc3ccccc3c2)NC(=O)[C@H](Cc2ccc(CNC(=O)CN3CCN(CC(=O)O)CCN(CC(=O)O)CCN(CC(=O)O)CC3)cc2)NC(=O)[C@H](CC(C)(C)C)NC(=O)[C@H](Cc2cccc3ccccc23)NC1=O [compound 200, Ac-[3-(4-piperidinyl)-Ala]-S-D-AllyG(4)-(1Nal)-(t-Bu-Ala)-[PAF(DOTA)]-(2Nal)-N-AllyG(4)-(aMe-P)-F-D-CONH2] (Ac-[Ala(piperidin-4-yl)]SD[AllylGly][1Nal][tBuAla][Phe(4-CH2NH2)](DOTA)[2Nal]N[AllylGly][αMeP]FD-NH2; staple 4-10)
% Internalization (out of bound fraction) (SHP-77 cells [1]): 46%
% Binding (SHP-77 cells [2]): 6%

From patent US20250186541A1, “DLL3 TARGETING PEPTIDES AND CONSTRUCTS THEREOF” (MARIANA ONCOLOGY INC., priority 2023, published 2025)
